Reference: patent publication US20240254119A1 (THIRD HARMONIC BIO, INC., priority 2022, published 2024)

Columns and labels:
[1] = target: T1, wtKIT (Homo sapiens, UniProt P10721); assay: HTRF biochemical assay, wtKIT (phosphorylation of a peptide substrate); conditions: Table 4
T1 construct: 1888289AM in the reaction mixtures
Procedure, shortened: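 HTRF read-out of FAM-peptide (1 µM) phosphorylation after anti-phosphotyrosine antibody addition and EDTA quench. Reaction: 5.0 nM wtKIT, 400 µM ATP, 10 mM Mn2+, HEPES pH 7.5, 1% DMSO, 3 h, 25 °C; optional enzyme-compound preincubation; enzyme level set for 10-20% conversion.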

[2] = target: T2, CSF-1R (Homo sapiens, UniProt P07333); assay: HTRF biochemical assay, CSF-1R; conditions: Table 4
T2 construct: purchased Invitrogen PV3249 (lot 662393N)
T2 sequence (P07333 20-972): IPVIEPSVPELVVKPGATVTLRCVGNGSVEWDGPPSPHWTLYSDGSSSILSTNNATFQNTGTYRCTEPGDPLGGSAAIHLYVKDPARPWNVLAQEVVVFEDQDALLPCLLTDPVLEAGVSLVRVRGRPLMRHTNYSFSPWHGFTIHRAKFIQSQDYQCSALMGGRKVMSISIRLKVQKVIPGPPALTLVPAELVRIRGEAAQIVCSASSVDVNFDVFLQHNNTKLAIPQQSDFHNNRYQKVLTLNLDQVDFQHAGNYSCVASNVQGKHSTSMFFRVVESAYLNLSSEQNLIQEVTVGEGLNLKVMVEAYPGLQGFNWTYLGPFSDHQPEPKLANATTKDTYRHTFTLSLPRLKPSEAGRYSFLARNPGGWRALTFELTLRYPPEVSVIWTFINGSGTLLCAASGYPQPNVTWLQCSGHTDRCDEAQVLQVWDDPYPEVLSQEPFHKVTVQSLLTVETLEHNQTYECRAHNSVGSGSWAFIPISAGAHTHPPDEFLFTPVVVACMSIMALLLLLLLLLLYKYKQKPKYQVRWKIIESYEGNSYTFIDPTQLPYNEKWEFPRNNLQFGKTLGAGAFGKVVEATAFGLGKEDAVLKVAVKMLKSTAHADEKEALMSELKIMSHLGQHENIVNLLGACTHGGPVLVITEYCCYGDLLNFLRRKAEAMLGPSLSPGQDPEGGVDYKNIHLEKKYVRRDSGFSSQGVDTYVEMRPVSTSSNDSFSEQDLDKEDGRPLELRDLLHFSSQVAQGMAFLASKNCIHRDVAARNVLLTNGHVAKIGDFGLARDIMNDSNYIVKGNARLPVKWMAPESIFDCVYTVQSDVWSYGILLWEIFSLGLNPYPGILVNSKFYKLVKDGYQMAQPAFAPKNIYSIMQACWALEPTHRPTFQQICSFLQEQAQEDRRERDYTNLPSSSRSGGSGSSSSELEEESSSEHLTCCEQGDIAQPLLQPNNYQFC
Experimental: (§1) Exemplary compounds were tested for ability to inhibit the phosphorylation of a peptide substrate by the tyrosine kinase wt KIT, PDGFRα, or CSF-1R. Assay procedures and results are described below.
(§2) Enzyme, substrate, and cofactors (ATP and Mn^2+) are combined in a well of a microtiter plate and incubated for 3 hours at 25° C. At the end of the incubation, the reaction is quenched by the addition of an EDTA-containing buffer.
(§3) The substrate used in the CSF-1R and PDGFRα assay is FAM-[…]-CONH2 (FAM is carboxyfluorescein). Peptide should be >95% purity. The substrate for the KIT assay is FAM-[…]-NH2.
(§4) • 1. To a well of a 384-wellplate add 5 μL of 2× enzyme buffer (or control). • 2. Add 100 nL of 100× compound. Enzyme and compound may be pre-incubated at this time if desired. • 3. Add 5 μL of 2× substrate buffer. • 4. Incubate plate at 25° C. for 3 hours. • 5. Add 10 uL of anti-phosphotyrosine antibody buffer. • 6. Read plate in BioTek Synergy Reader. Reaction Conditions for wtKIT Assay

[3] = target: T3, PDGFRα (Homo sapiens, UniProt P16234); assay: HTRF biochemical assay, PDGFRα; conditions: Table 4, read-out: PDFGRα Biochemical IC50 avg
T3 construct: purchased Millipore 14-467 (lot 26321_ACTI)
T3 sequence (P16234 24-1089): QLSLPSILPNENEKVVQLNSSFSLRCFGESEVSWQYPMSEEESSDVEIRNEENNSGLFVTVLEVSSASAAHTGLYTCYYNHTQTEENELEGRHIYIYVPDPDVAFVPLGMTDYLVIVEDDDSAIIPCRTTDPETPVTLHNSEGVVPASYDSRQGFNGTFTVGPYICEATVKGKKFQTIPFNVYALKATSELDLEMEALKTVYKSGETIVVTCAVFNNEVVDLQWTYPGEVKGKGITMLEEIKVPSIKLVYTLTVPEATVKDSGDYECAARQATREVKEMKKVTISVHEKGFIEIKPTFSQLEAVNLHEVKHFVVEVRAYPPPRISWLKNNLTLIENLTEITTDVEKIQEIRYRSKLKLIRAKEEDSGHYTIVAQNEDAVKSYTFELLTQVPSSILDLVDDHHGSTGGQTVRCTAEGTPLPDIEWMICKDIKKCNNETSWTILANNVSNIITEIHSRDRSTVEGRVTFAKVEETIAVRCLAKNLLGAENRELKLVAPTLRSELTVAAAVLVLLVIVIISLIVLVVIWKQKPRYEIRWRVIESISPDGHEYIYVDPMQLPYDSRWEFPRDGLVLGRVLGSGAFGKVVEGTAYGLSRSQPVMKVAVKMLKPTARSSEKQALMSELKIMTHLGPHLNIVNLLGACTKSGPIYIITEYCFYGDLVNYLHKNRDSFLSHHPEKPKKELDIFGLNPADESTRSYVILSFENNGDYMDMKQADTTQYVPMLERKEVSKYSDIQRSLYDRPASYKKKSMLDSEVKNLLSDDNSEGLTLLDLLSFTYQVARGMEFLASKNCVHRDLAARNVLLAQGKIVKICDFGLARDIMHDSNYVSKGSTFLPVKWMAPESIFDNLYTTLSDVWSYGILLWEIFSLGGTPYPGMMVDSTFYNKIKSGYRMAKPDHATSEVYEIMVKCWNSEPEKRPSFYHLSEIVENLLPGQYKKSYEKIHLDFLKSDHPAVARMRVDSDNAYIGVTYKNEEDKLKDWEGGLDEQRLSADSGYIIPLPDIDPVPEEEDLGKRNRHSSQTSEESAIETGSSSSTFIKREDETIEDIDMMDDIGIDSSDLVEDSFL
Experimental: as §1, §2, §3, §4

[4] = system: KIT phosphorylation in M-07e cells; assay: Cell-based KIT phosphorylation in M-07e cells by pKIT ELISA; design: species or system human; conditions: SCF stimulation
Experimental: Exemplary compounds were tested for ability to inhibit KIT phosphorylation using M-07e cells as monitored by pKIT ELISA. M-07e cells are also represented as M-07E, M-07e, M07-e, M07e, Mo7e, MO7e, M07E and MO7E. Assay procedures and results are described below.
Part I—Procedures for Determining KIT Inhibition inM-07e Cells Using pKTT ELISA Reagents and consumables: • M-07e cells: Initially obtained from Accegen, cat #ABC-TC1313 • p-cKIT Capture ELISA antibody: anti-Human Phospho-CD117/c-kit, R&D cat #DYC3527-5 • Anti-pY-HIRP antibody: R&D cat #DYC3527-5 • 25× wash buffer: Quantikine ELISA Wash Buffer 1, R&D cat #WA126 • PBS: R&D cat #DY006 • 96 well ELISA plates: Clear Polystyrene Microplates, R&D Cat #DY990 • 96 well Tissue culture plates: Corning® 96 Well TC-Treated Microplates, cat #CLS3894 • RPMI medium: ATCC® RPMI-1640 Medium, Cat #30-2001 • FBS: Fetal Bovine Serum, certified, United States Gibco, Thermo-Fisher 16000044 • GM-CSF: Recombinant Human GM-CSF Protein, R&D cat #215-GM • SCF: Recombinant Human SCF Protein, R&D cat #255-SC
• 1. Prepare cells: • a. Culture M-07e cells in RPMI medium+20% serum+GM-CSF+penstrep • To make 50 mL of growth medium • i. 40 mL RPMI media • ii. 10 mL FBS • iii. 10 uL of GM-CSF (100 ug/mL stock) • iv. 0.5 mL pen strep (100×) • b. Harvest cells • c. Re-suspend cells in 100% RPMI media (without serum) to final concentration of 1 million cells/mL • d. Transfer 100 uL of cell solution to 11 columns of a 96 well flat bottom cell culture plate • e. Incubate cells over night at 37 C • 2. Prepare ELISA Plates: • a. Dilute capture antibody to concentration 4 ug/mL in PBS • b. Coat 96 well microplates with 100 uL of capture antibody • c. Seal plates and incubate at RT overnight • d. Wash plates with 300 uL of wash buffer • e. Repeat wash • f. Treat plates with 300 uL of blocking buffer at RT for 1 hour • 3. Addition of compounds: • a. Prepare compound dilutions in RPMI media • i. Top test concentration is 1 uM • ii. Serially dilute compounds 3× for a total of 8 concentrations • b. Add 10 uL of 10× compound dilutions to cells • i. No compounds added in column 11 (for controls) • c. Incubate cells with compounds for 2 hours at 37 C • d. Stimulate cells with SCF for 5 min at concentration of 100 ng/mL (final) • i. In column 11 stimulate top 4 wells. Leave bottom 4 wells unstimulated • e. Remove cell culture media with multichannel pipet • f. Add 110 uL of Lysis buffer to all wells • g. Incubate plates at RT for 30 min while shaking • 4. Transfer 100 uL of cell lysis to each prepared Elisa plate • 5. Add 100 uL of the standard pc-KIT dilutions to the standard wells in column 12 • a. Top concentration=2000 pg/mL • b. 2× dilutions • 6. Incubate ELISA plate with cell lysate for 2 hours at RT • 7. Wash Plate with wash buffer (wash 1) • 8. Repeat wash (wash 2) • 9. […] Add 100 uL of diluted anti-pY-HRP (1/1000 dilution in detection antibody dilution buffer) and incubate 2 hours at RT • 11. Wash plate with wash buffer (wash 1) • 12. Repeat wash (wash 2) • 13. Repeat wash (wash 3) • 14. Add 100 uL of substrate solution to each well • 15. Incubate plates 20 min • Note: Plate development is indicated by aqua color • 16. Add 50 uL of stop solution to each well • 17. Determine optical density on Bitek Synergy Neo2: • a. Make new experiment
Select absorbance 1 set to 450 nm

[5] = Kinetic solubility assay; type: physicochemical; conditions: kinetic solubility, 50 mM PB (pH 7.4), shaken 24 hours at RT
Procedure, shortened: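 Concentration in the filtrate was determined by UPLC-UV or HPLC-UV with a standard curve. Before that, compound (10 mM DMSO stock) in 50 mM PB at pH 7.4 was agitated 24 h at room temperature, then PTFE-filtered with centrifugation.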

T1 sequence (P10721 26-976): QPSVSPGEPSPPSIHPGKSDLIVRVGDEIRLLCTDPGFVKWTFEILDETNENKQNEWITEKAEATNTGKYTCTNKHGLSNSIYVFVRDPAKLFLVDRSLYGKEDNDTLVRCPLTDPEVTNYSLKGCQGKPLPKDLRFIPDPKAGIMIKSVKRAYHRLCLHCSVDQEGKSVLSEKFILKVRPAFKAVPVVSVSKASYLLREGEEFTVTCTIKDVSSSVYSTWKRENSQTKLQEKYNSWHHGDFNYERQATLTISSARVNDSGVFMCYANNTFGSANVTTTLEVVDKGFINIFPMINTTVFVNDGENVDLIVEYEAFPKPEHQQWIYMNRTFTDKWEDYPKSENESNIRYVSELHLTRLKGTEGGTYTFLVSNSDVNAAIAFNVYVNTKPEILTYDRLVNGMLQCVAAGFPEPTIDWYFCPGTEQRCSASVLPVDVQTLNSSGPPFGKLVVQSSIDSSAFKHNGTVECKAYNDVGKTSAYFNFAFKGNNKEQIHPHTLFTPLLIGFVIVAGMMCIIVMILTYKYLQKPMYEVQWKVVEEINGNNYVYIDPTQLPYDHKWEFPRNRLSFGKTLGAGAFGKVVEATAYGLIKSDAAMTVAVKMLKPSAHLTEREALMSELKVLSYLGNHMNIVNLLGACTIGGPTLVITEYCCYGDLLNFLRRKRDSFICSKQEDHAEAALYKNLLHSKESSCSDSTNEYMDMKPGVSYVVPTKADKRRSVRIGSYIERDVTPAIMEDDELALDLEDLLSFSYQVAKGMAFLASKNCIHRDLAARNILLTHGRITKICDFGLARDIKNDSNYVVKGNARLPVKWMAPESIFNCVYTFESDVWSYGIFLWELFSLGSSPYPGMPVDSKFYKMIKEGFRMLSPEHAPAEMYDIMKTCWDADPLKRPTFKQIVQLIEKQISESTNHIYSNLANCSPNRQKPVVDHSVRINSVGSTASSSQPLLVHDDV

SMILES | IC50 [1] [nM] | IC50 [2] [nM] | IC50 [3] [nM] | IC50 [4] [nM] | Solubility (μM) [5]
Cc1ccc(-c2noc(CC(O)C(F)F)n2)cc1NC(=O)c1cnn2ccccc12 (single isomer, unassigned) [Compound I-75] | ≤ 50 | 50 to 500 | 500 to 5000 | ≤ 50 | **** (a solubility less than or equal to 2 μM)
Cc1ccc(-c2noc([C@@H]3CC(F)(F)CN3)n2)cc1NC(=O)c1cnc2cc(COCCO)ccn12 [Compound I-111] | ≤ 50 | 50 to 500 | 50 to 500 | ≤ 50 | * (a solubility greater than 50 μM)
Cc1ccc(-c2noc(C(O)C3CCC3)n2)cc1NC(=O)c1cnc2ccccn12 (racemic) [Compound I-79] | ≤ 50 | 50 to 500 | 50 to 500 | ≤ 50 | **** (a solubility less than or equal to 2 μM)
COc1ccn2c(C(=O)Nc3cc(-c4noc(C[C@@H](C)O)n4)ccc3C)cnc2c1 [Compound I-95] | ≤ 50 | 50 to 500 | 500 to 5000 | ≤ 50 | **** (a solubility less than or equal to 2 μM)
Cc1ccc2ncc(C(=O)Nc3cc(-c4noc([C@H]5C[C@@H]5F)n4)ccc3C)n2c1 [Compound I-108] | ≤ 50 | ≤ 50 | 50 to 500 | ≤ 50 | **** (a solubility less than or equal to 2 μM)
Cc1ccc(-c2noc([C@H]3C[C@@H]3F)n2)cc1NC(=O)c1cnc2ccc(Cl)cn12 [Compound I-102] | ≤ 50 | ≤ 50 | 500 to 5000 | ≤ 50 | **** (a solubility less than or equal to 2 μM)
Cc1ccc(-c2noc(C[C@@H](C)O)n2)cc1NC(=O)c1cnn2ccccc12 [Compound I-81] | 50 to 500 | 500 to 5000 | 5000 to 30000 | ≤ 50 | ** (a solubility greater than 10 μM and less than or equal to 50 μM)
Cc1ccc(-c2noc([C@H]3C[C@@H]3F)n2)cc1NC(=O)c1cnc2ccc(OC(C)C)cn12 [Compound I-86] | ≤ 50 | ≤ 50 | 50 to 500 | ≤ 50 | **** (a solubility less than or equal to 2 μM)
Cc1ccc(-c2noc(C(F)C3CC3)n2)cc1NC(=O)c1cnc2ccccn12 (racemic) [Compound I-77] | ≤ 50 | 50 to 500 | 5000 to 30000 | ≤ 50 | **** (a solubility less than or equal to 2 μM)
Cc1ccc(-c2noc(C3CC3F)n2)cc1NC(=O)c1cnc2cc(COC3CC(O)C3)ccn12 (stereo not shown) [Compound I-85] | ≤ 50 | ≤ 50 | 500 to 5000 | ≤ 50 | **** (a solubility less than or equal to 2 μM)
Cc1ccc(-c2noc(C3CC3F)n2)cc1NC(=O)c1cnc2cc(COC3CC(O)C3)ccn12 (mixture of isomers) [Compound I-72] | ≤ 50 | ≤ 50 | 500 to 5000 | ≤ 50 | **** (a solubility less than or equal to 2 μM)
Cc1ccc(-c2noc([C@H]3C[C@@H]3F)n2)cc1NC(=O)c1cnn2cc(F)ccc12 [Compound I-101] | ≤ 50 | 50 to 500 | 5000 to 30000 | 50 to 500 | **** (a solubility less than or equal to 2 μM)
COC(=O)N1CC(c2nc(-c3ccc(C)c(NC(=O)c4cnc5cc(CO)ccn45)c3)no2)C1 [Compound I-120] | 50 to 500 | 5000 to 30000 | 5000 to 30000 | ≤ 50 | **** (a solubility less than or equal to 2 μM)
Cc1ccc(-c2noc([C@H]3C[C@@H]3F)n2)cc1NC(=O)c1cnc2cc(F)ccn12 [Compound I-103] | ≤ 50 | ≤ 50 | 500 to 5000 | 50 to 500 | **** (a solubility less than or equal to 2 μM)
